{
  "source": "patent US20250134809A1",
  "about": "“A PHYTOACTIVE ENCAPSULATED FORMULATION FOR NEURODEGENERATIVE DISEASES” (Gidaa Life Sciences Pvt. Ltd., priority 2022, published 2025)",
  "assay_type_in_all_cases": "in vivo, rat",
  "key": {"[1]": {"tested_on": "Alzheimer's Disease model (Aluminium Chloride induced), Wistar male rats", "assay": "Morris water maze in AlCl3-induced Alzheimer's Disease model", "conditions": "G3 (Donepezil orally)", "method": "(§1) This compound PHY-001 (Named as MAG XXI in Animal study by CEFTE) has also been subjected to in-vivo animal study at the animal study facility attached to SRMC (Sri Ramachandra Medical College) Hospital, Chennai. In this study, the therapeutic efficacy of this compound was evaluated against Alzheimer's Disease model, by inducing Alzheimer's like pathology by intra peritoneal administration of Aluminium Chloride (Established animal model for studying Alzheimer's disease and efficacy evaluation of a therapeutic intervention).\n(§2) Based on the pilot study observations, a main study was conducted. Totally 30 Wistar male rats were used for the study. Animals were formed into five groups, Group 1-rats served as a control group, animals in group 2 to 5 were injected with AlCl3 intra-peritoneally once daily for four weeks.\nThe results of number of times crossed centre at Morris water maze and escape latency which is the […] the animal could find the platform and escape (in 3 minutes), are presented in table 1 & table 2."}, "[2]": {"tested_on": "Alzheimer's Disease model (Aluminium Chloride induced), Wistar male rats", "assay": "Passive avoidance test in AlCl3-induced Alzheimer's Disease model", "conditions": "G3 (Donepezil orally)", "method": "as §1, §2\nSignificant alteration in dark compartment movement at all weeks is noticed in G2 group when compared to G1 which elucidate the learning memory defect."}, "[3]": {"tested_on": "Alzheimer's Disease model (Aluminium Chloride induced), Wistar male rats", "assay": "Elevated plus maze in AlCl3-induced Alzheimer's Disease model", "conditions": "G3 (Donepezil orally); for Elevated plus maze: No. of DF (defacation) / Elevated plus maze: No. of UP (urine pool): Latency period 3 minutes", "method": "as §1, §2"}},
  "data": [
    {"smiles": "COc1cc2c(cc1OC)C(=O)C(CC1CCN(Cc3ccccc3)CC1)C2", "note": "(stereo not shown) [Donepezil]", "values": [
      {"measurement": "times crossed centre and escape latency when compared to G2", "setting": "[1]", "value": "significant elevation"},
      {"measurement": "Escape latency (in 3 minutes): No. of times find platform and escape", "setting": "[1]; WK 1", "value": 3.33},
      {"measurement": "Morris water maze: No. of times crossed center in 1 minute (mean values)", "setting": "[1]; WK 1", "value": 2.5},
      {"measurement": "Escape latency (in 3 minutes): No. of times find platform and escape", "setting": "[1]; WK 2", "value": 2.67},
      {"measurement": "Morris water maze: No. of times crossed center in 1 minute (mean values)", "setting": "[1]; WK 2", "value": 2.67},
      {"measurement": "Escape latency (in 3 minutes): No. of times find platform and escape", "setting": "[1]; WK 3", "value": 3.33},
      {"measurement": "Morris water maze: No. of times crossed center in 1 minute (mean values)", "setting": "[1]; WK 3", "value": 2.83},
      {"measurement": "Escape latency (in 3 minutes): No. of times find platform and escape", "setting": "[1]; WK 4", "value": 3.5},
      {"measurement": "Morris water maze: No. of times crossed center in 1 minute (mean values)", "setting": "[1]; WK 4", "value": 3.33},
      {"measurement": "dark compartment movement when compared to G2", "setting": "[2]", "value": "significant reversal"},
      {"measurement": "Passive avoidance: latency to enter dark chamber (mean values)", "setting": "[2]; WK 1", "value": 31.83, "unit": "s"},
      {"measurement": "Passive avoidance: latency to enter dark chamber (mean values)", "setting": "[2]; WK 2", "value": 42, "unit": "s"},
      {"measurement": "Passive avoidance: latency to enter dark chamber (mean values)", "setting": "[2]; WK 3", "value": 45.33, "unit": "s"},
      {"measurement": "Passive avoidance: latency to enter dark chamber (mean values)", "setting": "[2]; WK 4", "value": 47, "unit": "s"},
      {"measurement": "Elevated plus maze: No. of DF (defacation)", "setting": "[3]; WK 1", "value": 1},
      {"measurement": "Elevated plus maze: No. of UP (urine pool)", "setting": "[3]; WK 1", "value": 0.5},
      {"measurement": "Elevated plus maze: No. of DF (defacation)", "setting": "[3]; WK2", "value": 0.5},
      {"measurement": "Elevated plus maze: No. of UP (urine pool)", "setting": "[3]; WK2", "value": 0.17},
      {"measurement": "Elevated plus maze: No. of DF (defacation)", "setting": "[3]; WK 3", "value": 1.17},
      {"measurement": "Elevated plus maze: No. of UP (urine pool)", "setting": "[3]; WK 3", "value": 1.33},
      {"measurement": "Elevated plus maze: No. of DF (defacation)", "setting": "[3]; WK 4", "value": 0.83},
      {"measurement": "Elevated plus maze: No. of UP (urine pool)", "setting": "[3]; WK 4", "value": 1.17},
      {"measurement": "Elevated plus maze: No. of entries in Closed arm", "setting": "[3]; WK 1", "value": 3.5},
      {"measurement": "Elevated plus maze: No. of entries in Open arm", "setting": "[3]; WK 1", "value": 0.33},
      {"measurement": "Elevated plus maze: No. of entries in Closed arm", "setting": "[3]; WK 2", "value": 4.17},
      {"measurement": "Elevated plus maze: No. of entries in Open arm", "setting": "[3]; WK 2", "value": 0.33},
      {"measurement": "Elevated plus maze: No. of entries in Closed arm", "setting": "[3]; WK 3", "value": 2.5},
      {"measurement": "Elevated plus maze: No. of entries in Open arm", "setting": "[3]; WK 3", "value": 0},
      {"measurement": "Elevated plus maze: No. of entries in Closed arm", "setting": "[3]; WK 4", "value": 2.67},
      {"measurement": "Elevated plus maze: No. of entries in Open arm", "setting": "[3]; WK 4", "value": 1.67},
      {"measurement": "number of entries in open arm and closed arm when compared to G2", "setting": "[3]; week 4", "value": "significant elevation"}
    ]}
  ]
}
